{
  "source": "ChEMBL document CHEMBL4184100",
  "about": "“Discovery of 2-arylquinazoline derivatives as a new class of ASK1 inhibitors” (Bioorg Med Chem Lett, 2018)",
  "key": {"CYP3A4": {"target": "CYP3A4 (Homo sapiens, UniProt P08684)", "sequence (P08684 whole entry)": "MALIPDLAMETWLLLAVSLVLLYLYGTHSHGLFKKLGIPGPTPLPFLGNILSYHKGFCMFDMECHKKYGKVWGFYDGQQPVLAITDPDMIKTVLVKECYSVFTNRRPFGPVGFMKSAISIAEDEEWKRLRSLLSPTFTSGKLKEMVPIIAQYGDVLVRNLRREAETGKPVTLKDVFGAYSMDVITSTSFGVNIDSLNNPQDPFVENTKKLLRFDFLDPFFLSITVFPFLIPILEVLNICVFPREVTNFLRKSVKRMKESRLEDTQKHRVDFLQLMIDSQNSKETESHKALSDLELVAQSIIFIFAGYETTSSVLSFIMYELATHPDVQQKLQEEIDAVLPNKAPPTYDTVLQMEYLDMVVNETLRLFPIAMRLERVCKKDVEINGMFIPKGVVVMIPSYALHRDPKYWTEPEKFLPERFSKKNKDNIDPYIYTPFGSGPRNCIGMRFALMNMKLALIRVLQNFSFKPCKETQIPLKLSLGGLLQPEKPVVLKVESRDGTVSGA", "assay": "Inhibition of CYP3A4 (unknown origin) at 10 uM relative to control", "assay_type": "ADME"}, "[1]": {"assay": "Stability in mouse liver microsomes", "assay_type": "ADME, microsome", "conditions": "read-out: Stability"}, "CYP1A2": {"target": "T1, CYP1A2 (Homo sapiens, UniProt P05177)", "T1 sequence (P05177 whole entry)": "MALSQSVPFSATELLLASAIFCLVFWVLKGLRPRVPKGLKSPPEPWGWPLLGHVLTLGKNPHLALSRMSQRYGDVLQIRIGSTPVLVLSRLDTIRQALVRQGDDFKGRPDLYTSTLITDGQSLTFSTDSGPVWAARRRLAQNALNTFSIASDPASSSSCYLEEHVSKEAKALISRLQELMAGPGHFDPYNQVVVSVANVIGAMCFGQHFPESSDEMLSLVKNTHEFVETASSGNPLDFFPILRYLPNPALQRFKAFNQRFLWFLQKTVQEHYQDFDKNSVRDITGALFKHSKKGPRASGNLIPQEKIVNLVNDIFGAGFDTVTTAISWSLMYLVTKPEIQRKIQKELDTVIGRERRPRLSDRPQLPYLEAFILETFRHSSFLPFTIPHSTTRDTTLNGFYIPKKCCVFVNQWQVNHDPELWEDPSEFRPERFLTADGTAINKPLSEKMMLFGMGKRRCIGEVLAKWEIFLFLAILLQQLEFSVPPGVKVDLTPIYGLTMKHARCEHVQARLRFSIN", "assay": "Inhibition of CYP1A2 (unknown origin) at 10 uM relative to control", "assay_type": "ADME"}, "[2]": {"target": "T2, Mitogen-activated protein kinase kinase kinase 5 (Homo sapiens, UniProt Q99683)", "T2 sequence (Q99683 whole entry)": "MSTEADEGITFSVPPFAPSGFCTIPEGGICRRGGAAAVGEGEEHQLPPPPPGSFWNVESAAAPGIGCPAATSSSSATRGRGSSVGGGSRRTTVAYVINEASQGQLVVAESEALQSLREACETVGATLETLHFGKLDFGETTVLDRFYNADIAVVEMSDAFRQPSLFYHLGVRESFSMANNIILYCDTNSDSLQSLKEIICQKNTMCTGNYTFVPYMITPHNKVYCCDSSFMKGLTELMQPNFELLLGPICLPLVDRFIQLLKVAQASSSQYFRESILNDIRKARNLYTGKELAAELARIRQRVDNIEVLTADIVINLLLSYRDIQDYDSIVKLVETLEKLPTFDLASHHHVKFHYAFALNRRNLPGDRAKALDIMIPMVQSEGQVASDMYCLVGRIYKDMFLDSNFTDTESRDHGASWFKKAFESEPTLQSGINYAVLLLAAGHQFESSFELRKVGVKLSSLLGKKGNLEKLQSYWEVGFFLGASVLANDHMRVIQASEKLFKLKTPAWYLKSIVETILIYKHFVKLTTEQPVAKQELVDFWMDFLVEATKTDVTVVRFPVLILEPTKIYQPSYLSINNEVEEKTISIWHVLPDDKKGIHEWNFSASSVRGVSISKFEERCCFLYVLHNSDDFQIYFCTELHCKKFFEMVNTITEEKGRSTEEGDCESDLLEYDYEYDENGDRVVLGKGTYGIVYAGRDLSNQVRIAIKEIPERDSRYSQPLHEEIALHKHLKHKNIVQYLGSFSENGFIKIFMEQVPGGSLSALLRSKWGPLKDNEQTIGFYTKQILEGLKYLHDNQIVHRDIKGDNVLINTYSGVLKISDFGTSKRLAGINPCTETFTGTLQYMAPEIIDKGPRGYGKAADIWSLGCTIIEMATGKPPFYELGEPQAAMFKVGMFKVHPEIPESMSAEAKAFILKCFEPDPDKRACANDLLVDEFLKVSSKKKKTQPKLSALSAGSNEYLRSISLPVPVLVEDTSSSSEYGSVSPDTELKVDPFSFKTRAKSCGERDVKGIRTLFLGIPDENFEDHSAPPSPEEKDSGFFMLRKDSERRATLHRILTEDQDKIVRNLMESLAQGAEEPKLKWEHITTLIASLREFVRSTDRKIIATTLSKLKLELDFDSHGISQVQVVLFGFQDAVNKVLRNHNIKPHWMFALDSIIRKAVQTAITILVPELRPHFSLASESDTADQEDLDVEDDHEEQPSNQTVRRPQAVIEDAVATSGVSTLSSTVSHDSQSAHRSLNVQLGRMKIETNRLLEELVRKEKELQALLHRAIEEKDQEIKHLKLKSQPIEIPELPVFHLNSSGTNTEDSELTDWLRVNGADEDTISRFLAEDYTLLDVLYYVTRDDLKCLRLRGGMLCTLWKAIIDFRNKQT", "assay": "Inhibition of stress-activated full length recombinant human N-terminal GST-tagged ASK1 expressed in baculovirus expression system using MKK6 as substrate pretreated for 10 mins followed by substrate addition by Alphascreen assay"}, "[3]": {"assay": "Solubility of the compound in phosphate buffered saline at pH 7.4", "assay_type": "physicochemical", "conditions": "buffer"}, "[4]": {"target": "T3, Mitogen-activated protein kinase kinase kinase 5 (Rattus norvegicus) (UniProt D3ZZH6)", "T3 sequence (whole entry)": "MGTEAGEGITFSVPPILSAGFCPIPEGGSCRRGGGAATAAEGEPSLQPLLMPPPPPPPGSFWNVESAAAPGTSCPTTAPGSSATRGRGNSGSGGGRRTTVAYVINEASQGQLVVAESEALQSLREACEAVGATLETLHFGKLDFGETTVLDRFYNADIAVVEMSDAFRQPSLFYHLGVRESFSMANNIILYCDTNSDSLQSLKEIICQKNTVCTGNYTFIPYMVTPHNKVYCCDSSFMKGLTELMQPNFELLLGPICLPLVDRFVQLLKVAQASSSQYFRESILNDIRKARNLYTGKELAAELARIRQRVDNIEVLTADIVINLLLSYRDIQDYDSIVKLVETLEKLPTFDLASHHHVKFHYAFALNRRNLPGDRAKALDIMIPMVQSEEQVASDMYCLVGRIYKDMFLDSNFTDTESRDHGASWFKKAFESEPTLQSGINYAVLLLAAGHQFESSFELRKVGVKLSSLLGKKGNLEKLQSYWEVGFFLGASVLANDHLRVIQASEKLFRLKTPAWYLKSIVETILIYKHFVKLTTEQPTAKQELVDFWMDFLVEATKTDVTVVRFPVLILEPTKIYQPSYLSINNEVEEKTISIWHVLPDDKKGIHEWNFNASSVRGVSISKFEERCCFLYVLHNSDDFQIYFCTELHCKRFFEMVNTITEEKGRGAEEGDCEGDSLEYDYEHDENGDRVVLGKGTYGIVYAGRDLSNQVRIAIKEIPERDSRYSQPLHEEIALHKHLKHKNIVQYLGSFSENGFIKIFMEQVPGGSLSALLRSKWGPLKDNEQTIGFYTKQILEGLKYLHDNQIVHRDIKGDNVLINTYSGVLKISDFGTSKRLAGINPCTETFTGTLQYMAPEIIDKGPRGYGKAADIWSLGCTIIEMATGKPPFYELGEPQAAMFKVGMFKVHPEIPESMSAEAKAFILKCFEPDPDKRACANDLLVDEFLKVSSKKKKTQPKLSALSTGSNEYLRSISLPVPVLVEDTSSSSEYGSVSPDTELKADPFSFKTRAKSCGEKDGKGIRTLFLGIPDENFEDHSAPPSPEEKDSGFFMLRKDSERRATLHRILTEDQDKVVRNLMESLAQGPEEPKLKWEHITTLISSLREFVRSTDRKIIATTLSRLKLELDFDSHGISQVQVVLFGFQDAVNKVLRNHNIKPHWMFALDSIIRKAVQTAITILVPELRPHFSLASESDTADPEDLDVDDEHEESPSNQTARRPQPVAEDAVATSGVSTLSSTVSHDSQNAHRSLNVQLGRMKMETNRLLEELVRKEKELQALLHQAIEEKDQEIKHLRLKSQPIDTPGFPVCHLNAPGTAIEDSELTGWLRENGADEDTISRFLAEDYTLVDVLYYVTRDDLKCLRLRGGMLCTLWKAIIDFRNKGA", "assay": "Inhibition of […] in rat INS-1E cells assessed as reduction in TNFalpha-induced […] phosphorylation at ser207 residues up to 10 uM by immunoblot analysis", "assay_type": "cell-based"}, "CYP2C9": {"target": "CYP2C9 (Homo sapiens, UniProt P11712)", "sequence (P11712 whole entry)": "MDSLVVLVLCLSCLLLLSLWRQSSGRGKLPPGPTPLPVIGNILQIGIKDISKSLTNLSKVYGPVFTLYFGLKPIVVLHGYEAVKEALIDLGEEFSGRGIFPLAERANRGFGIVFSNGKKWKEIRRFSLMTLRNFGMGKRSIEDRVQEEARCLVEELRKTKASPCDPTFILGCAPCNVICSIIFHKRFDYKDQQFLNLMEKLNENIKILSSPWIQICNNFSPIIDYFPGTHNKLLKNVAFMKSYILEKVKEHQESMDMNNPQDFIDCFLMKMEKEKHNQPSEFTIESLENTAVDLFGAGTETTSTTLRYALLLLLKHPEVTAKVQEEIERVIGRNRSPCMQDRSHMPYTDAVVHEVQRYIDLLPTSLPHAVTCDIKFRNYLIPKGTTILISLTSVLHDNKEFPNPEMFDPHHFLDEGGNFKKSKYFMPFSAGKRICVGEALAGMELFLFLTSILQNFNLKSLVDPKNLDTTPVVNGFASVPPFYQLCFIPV", "assay": "Inhibition of CYP2C9 (unknown origin) at 10 uM relative to control", "assay_type": "ADME"}, "CYP2D6": {"target": "CYP2D6 (Homo sapiens, UniProt P10635)", "sequence (P10635 whole entry)": "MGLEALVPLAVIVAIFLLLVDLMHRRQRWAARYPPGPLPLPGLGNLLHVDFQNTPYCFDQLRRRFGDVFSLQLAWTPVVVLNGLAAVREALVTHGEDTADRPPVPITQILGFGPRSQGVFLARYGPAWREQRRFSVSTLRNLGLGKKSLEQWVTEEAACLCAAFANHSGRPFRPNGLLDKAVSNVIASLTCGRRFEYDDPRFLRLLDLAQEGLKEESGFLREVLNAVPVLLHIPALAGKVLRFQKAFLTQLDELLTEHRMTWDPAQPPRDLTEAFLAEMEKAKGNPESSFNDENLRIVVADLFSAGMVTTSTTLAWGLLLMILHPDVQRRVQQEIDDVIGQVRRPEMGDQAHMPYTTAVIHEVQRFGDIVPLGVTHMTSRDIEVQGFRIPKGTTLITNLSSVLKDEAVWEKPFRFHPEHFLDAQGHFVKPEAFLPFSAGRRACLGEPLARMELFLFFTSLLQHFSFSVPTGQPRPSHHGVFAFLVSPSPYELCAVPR", "assay": "Inhibition of CYP2D6 (unknown origin) at 10 uM relative to control", "assay_type": "ADME"}, "[5]": {"assay": "Stability in rat liver microsomes", "assay_type": "ADME, microsome", "conditions": "read-out: Stability"}, "[6]": {"assay": "Stability in human liver microsomes", "assay_type": "ADME, microsome", "conditions": "read-out: Stability"}},
  "note": "Calls of active or inactive are those of the source. No cut-off for these calls is given here.",
  "data": [
    {"smiles": "CC(=O)Nc1cccc(Nc2ncc3ccccc3n2)c1", "values": [
      {"measurement": "inhibition at 10 µM", "setting": "CYP3A4", "result": -13, "unit": "%"},
      {"measurement": "half-life", "setting": "[1]", "result": 2, "unit": "min"},
      {"measurement": "inhibition at 10 µM", "setting": "CYP1A2", "result": 94, "unit": "%"},
      {"measurement": "IC50", "setting": "[2]", "result": 900, "unit": "nM"},
      {"measurement": "solubility", "setting": "[3]", "result": 100, "unit": "µM"},
      {"measurement": "inhibition", "setting": "[4]", "result": "Active"},
      {"measurement": "inhibition at 10 µM", "setting": "CYP2C9", "result": 20, "unit": "%"},
      {"measurement": "inhibition at 10 µM", "setting": "CYP2D6", "result": 13, "unit": "%"},
      {"measurement": "half-life", "setting": "[5]", "result": 4, "unit": "min"},
      {"measurement": "half-life", "setting": "[6]", "result": 6, "unit": "min"}
    ]}
  ]
}
